Our source for the logP values is the SangsterLogP compilation.

Structures are written as SMILES.

This data set in a line: method code SF-AS, from DOI: 10.1002/zfch.19790190911.
The term logP denotes the decadic logarithm of the partition coefficient of the neutral form, usually between octanol and water. The compound `CCCCc1nnc(N)o1` yielded a logP of 0.65.

In turn, `CCCC(=O)NN` showed a logP of -0.62.

Consider `CCCCCC(=O)NN`, for which the logP came to 0.48.

Take `CCC(=O)NN`: the logP was -1.

Turning to `Cc1nnc(N)o1`, the logP was -0.92.

With `CCC(C)c1nnc(N)o1` (stereo not drawn), the logP came to 0.62.

Compound `CCc1nnc(N)o1` displayed a logP of -0.3.

In turn, `CC(C)(C)c1nnc(N)o1` displayed a logP of 0.48.

Regarding `CCCCCc1nnc(N)o1`, the logP was found to be 1.1.

Compound `CC(C)C(=O)NN` displayed a logP of -0.63.

The compound `CC(C)c1nnc(N)o1` showed a logP of 0.2.

In turn, `CCCCCCCc1nnc(N)o1` yielded a logP of 0.73.

On to `CC(C)(C)C(=O)NN`, for which the logP is -0.35.

The compound `Nc1nnc(CCc2ccccc2)o1` returned a logP of 1.19.

Compound `CCCCC(=O)NN` gave a logP of -0.11.

For the compound `CCCCCCc1nnc(N)o1`, the logP was determined as 1.43.

For the compound `CC(=O)NN`, the logP is -1.58.

In the case of `Nc1nnc(Cc2ccccc2)o1`, the logP was 0.95.

`CCCCCCCCCC(=O)NN` came in with a logP of 0.03.

As for `CC(C)Cc1nnc(N)o1`, the logP was determined as 0.4.

Take `CCC(C)C(=O)NN` (stereo not drawn): the logP is -0.33.

Consider `CCCCCCCC(=O)NN`, for which the logP turned out to be 1.

With `NNC=O`, the logP is -2.05.

`CCCCCCC(=O)NN` returned a logP of 0.97.

`CCCCCCCCC(=O)NN` showed a logP of 0.5.

`CC(C)CC(=O)NN` yielded a logP of -0.31.

In turn, `Nc1nnco1` yielded a logP of -1.44.

`CCCc1nnc(N)o1` showed a logP of 0.23.
